The text below walks through data of US20240216311A1, “FULLY-DILUTABLE, SELF-MICROEMULSIFYING DELIVERY SYSTEMS (SMEDDS) FOR POORLY WATER-SOLUBLE POLAR SOLUTES” (THE GOVERNING COUNCIL OF THE UNIVERSITY OF TORONTO, priority 2020, published 2024).

Data set [1] is described as follows: Characteristic curvature (Cc) by salinity phase scans with reference surfactant C9E5. In kind it is physicochemical. Particulars: for Cc (characteristic curvature): methodology of Example 1, C9E5 as reference surfactant; for dS*/dx: polar oil in mixtures with C9E5, heptane (cyclohexane for CBD) as oil. How it is done:
The characteristic curvature (Cc) of the candidate hydrophilic linker with extremely negative Cc (Cc<−5) was determined following the mixed reference and test surfactant method used by Zarate et al.. […] The salinity phase scans were conducted by vortex-mixing 2 mL of the aqueous surfactant solution, containing a set value of sodium chloride (g NaCl/100 mL of aqueous surfactant solution or % w/v NaCl) with 2 mL of n-heptane at room temperature in 2-dram vials sealed with a silicone-lined cap. […] The difference between the initial volume added to the vial (2 mL), and the excess phase volume was considered the volume solubilized. The ratio between the volume solubilized (in mL) and the total mass of surfactant mixture (0.2 g) was reported as the solubilization parameter (SP) for the given phase at the set salinity.

The conditions of data set [2]: cited from earlier work; for Polar area: from ChemSpider; for Dipole moment: from Tantishaiyakul et al. [33].
The conditions of data set [3]: literature value, cited from earlier work.
The conditions of data set [4]: adapted from [21]; cited from earlier work.
Setting [5] is: from Drugbank, nonylphenol from ChemSpider.

Read-outs that look alike come from different tables or passages of the source.

Usually logP stands for a log measure of how a compound divides between an organic and an aqueous phase.

As for `C=CCc1ccc(O)c(OC)c1` [Eugenol], in data set [1], the “Cc (characteristic curvature)” value was “+2.8” and the “dS*/dx” value is given as −37 % w/v NaCl. Also, in data set [2], the Polar area was 29 Å^2 and the Dipole moment is 2.8 Debye. Moreover, in data set [2] (setting [5]), the “Number of H-acceptors” value is 2, the “Number of H-donors” value is on record as 1 and the pKa result is “Neutral”.
On to Sucrose palmitate, for which, in data set [3], the “Cc (characteristic curvature)” value was −0.8 ± 0.2.
As to `C=C(C)[C@@H]1CCC(C)=C[C@H]1c1c(O)cc(CCCCC)cc1O` [Cannabidiol (CBD), Cannabidiol], in data set [1], the “Cc (characteristic curvature)” value is given as “+2.6” and the “dS*/dx” value is on record as −38 % w/v NaCl. In data set [2], the Polar area is on record as 40 Å^2 and the Dipole moment is on record as 1.9 Debye. For the same molecule, in data set [2] (setting [5]), the Aqueous solubility was 0.0013 wt %, the “Number of H-acceptors” value is listed as 2, the “Number of H-donors” value is recorded as 2 and the pKa entry is on record as “Neutral”.
As to `CCOC(=O)c1ccc(N)cc1` [Benzocaine], in data set [1], the “Cc (characteristic curvature)” value is given as “+1.6” and the “dS*/dx” value is −27 % w/v NaCl.
Regarding “Sorbitan monooleate [Sorbitan monooleate (Span 80)]”, the “Cc (characteristic curvature)” value in data set [3] is listed as “+5.0 ± 1^”.
As to Nonylphenol, the “Cc (characteristic curvature)” value in data set [1] is “+7.2”. In data set [2], the Polar area is 20 Å^2 and the Dipole moment is recorded as 1.6 Debye. Moreover, in data set [2] (setting [5]), the “Number of H-acceptors” value is listed as 2, the “Number of H-donors” value is listed as 1 and the pKa result was “Neutral”. Further, the logP in data set [2] (octanol-water, from Drugbank, nonylphenol from ChemSpider) is 5.8.
For `CCCCCCCC/C=C\CCCCCCCC(=O)OCCOCC(OCCO)C1OCC(OCCO)C1OCCO` (centres unmarked) [Tween 80], in data set [4], the L is recorded as 34 Å and the vs/as was 25.8 Å. For the same molecule, in data set [3], the “Cc (characteristic curvature)” value is recorded as −3.0 ± 0.7.
As for “Sorbitan monolaurate [Sorbitan monolaurate, Span 20]”, the “Cc (characteristic curvature)” value in data set [3] was “+3.5 ± 0.8”.
In the case of `CCCCCCCC(=O)[O-].[Na+]` [Sodium octanoate], in data set [4], the L is reported as 12 Å and the vs/as was 4.6 Å. In addition, the “Cc (characteristic curvature)” value in data set [3] was −2.1 ± 0.1.
Consider Sucrose distearate, for which the “Cc (characteristic curvature)” value in data set [3] is given as “+4 ± 0.2”.
Take `CC(C)Cc1ccc(C(C)C(=O)O)cc1` (racemic) [Ibuprofen]: the “Cc (characteristic curvature)” value in data set [1] is “+4.9”. In addition, in data set [2], the Polar area is 37 Å^2 and the Dipole moment is 1.9 Debye. Also, in data set [2] (setting [5]), the “Number of H-acceptors” value is given as 2 and the “Number of H-donors” value is recorded as 1.
Take `CCCCCCCC/C=C\CCCCCCCC(=O)[O-].[Na+]` [Sodium oleate]: in data set [4], the L is 30 Å and the vs/as is 8.4 Å. Besides, the “Cc (characteristic curvature)” value in data set [3] is listed as −1.7 ± 0.1.
Regarding `CCCCCCCC/C=C\CCCCCCCC(=O)O` [Oleic acid], the “Cc (characteristic curvature)” value in data set [3] was 0 ± 0.1.
Consider Disodium stearoyl capryl glutamate, for which the vs/as in data set [4] was 7.9 Å. The “Cc (characteristic curvature)” value in data set [3] was −5 ± 0.2.
As for `CCCCCCCC/C=C\CCCCCCCC(=O)OCC(O)CO` (centres unmarked) [Glycerol monooleate], the entries for the “Cc (characteristic curvature)” value in data set [3] and in data set [3] (listed as Peceol™) were “+6.6 ± 1.5” and “+6.6”, respectively.
